Where a name gives a salt, the structure may show the parent alone.
Tests used:
cells = conditions: high levels of 4μ8C; cited from earlier work
[1] = biological target: kinase domain of IRE1 alpha (His-tagged kinase dead construct KR, AA G547-L977, D688N) (Homo sapiens (Human), UniProt O75460, D688N); test: IRE1α TR-FRET competition binding assay; conditions: competition with Kinase Tracer 236, 0.1 μM; one hour at room temperature
Method in brief: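 Compound displacement of an ATP-site fluorescent tracer (0.1 μM final) measured by TR-FRET after 1 h at room temperature. Protein, a His-tagged D688N kinase/RNase construct from Sf9 cells (0.006 μM final), was pre-bound 1 h at 4° C to Eu anti-His antibody (0.002 μM) in pH 7.5 HEPES buffer.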

Sequence of kinase domain of IRE1 alpha (His-tagged kinase dead construct KR, AA G547-L977, D688N) (O75460 547-977 D688N): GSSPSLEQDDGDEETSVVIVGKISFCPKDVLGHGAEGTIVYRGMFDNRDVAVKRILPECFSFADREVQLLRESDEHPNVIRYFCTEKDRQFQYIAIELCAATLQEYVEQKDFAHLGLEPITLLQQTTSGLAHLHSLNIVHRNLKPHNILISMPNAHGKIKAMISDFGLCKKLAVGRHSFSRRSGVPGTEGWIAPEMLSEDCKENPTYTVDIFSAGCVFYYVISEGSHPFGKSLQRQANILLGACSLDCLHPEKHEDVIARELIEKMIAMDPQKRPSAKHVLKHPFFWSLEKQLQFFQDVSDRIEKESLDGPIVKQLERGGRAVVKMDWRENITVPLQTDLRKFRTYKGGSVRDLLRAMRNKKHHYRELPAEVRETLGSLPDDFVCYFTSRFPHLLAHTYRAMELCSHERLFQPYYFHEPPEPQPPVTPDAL

SMILES | IC50 [1] | toxicity in cells (cells)
Cc1cc(=O)oc2c(C=O)c(O)ccc12 [Compound 4μ8C] |  | no measurable toxicity
O=S(=O)(Cc1ccccc1)Nc1c(F)cc(Oc2ncccc2-c2ccnc(N[C@H]3CCCNC3)n2)c(F)c1F [Compound 153, (S)-1-Phenyl-N-(2,3,6-trifluoro-4-((3-(2-(piperidin-3-ylamino)pyrimidin-4-yl)pyridin-2-yl)oxy)phenyl)methanesulfonamide hydrochloride] | 3.8 nM | 
O=S(=O)(Cc1ccccc1)Nc1c(F)cc(Oc2ncccc2-c2ccnc(NC3CNCC(C(F)F)C3)n2)c(F)c1F (single isomer, unassigned) [Compound 303, N-(4-((3-(2-((5-(Difluoromethyl)piperidin-3-yl)amino)pyrimidin-4-yl)pyridin-2-yl)oxy)-2,3,6-trifluorophenyl)-1-phenylmethanesulfonamide] | 35 nM | 
CN=S(=O)(Cc1ccccc1)Nc1ccc(Oc2ncccc2-c2ccnc(N[C@H]3CCCNC3)n2)c(F)c1F (stereo partly drawn) [Compound 273, N-(2,3-difluoro-4-((3-(2-(((S)-piperidin-3-yl)amino)pyrimidin-4-yl)pyridin-2-yl)oxy)phenyl)-N′-methyl-1-phenylmethanesulfonimidamide] | 410 nM | 
CN1CCN(Cc2ccc(NC(=O)Nc3cccc(Oc4ncccc4-c4ccnc(N[C@@H]5CNC[C@@H](F)C5)n4)c3)cc2C(F)(F)F)CC1 [Compound 286, 1-(3-((3-(2-(((3S,5S)-5-Fluoropiperidin-3-yl)amino)pyrimidin-4-yl)pyridin-2-yl)oxy)phenyl)-3-(4-((4-methylpiperazin-1-yl)methyl)-3-(trifluoromethyl)phenyl)urea hydrochloride] | 260 nM | 
Cc1cc(NS(=O)(=O)Cc2ccccc2)ccc1Oc1ncccc1-c1ccnc(N[C@H]2CCCNC2)n1 [Compound 157, (S)-N-(3-methyl-4-((3-(2-(piperidin-3-ylamino)pyrimidin-4-yl)pyridin-2-yl)oxy)phenyl)-1-phenylmethanesulfonamide] | 29 nM | 
O=S(=O)(CC1CC1(F)F)Nc1c(F)cc(Oc2ncccc2-c2ccnc(N[C@@H]3CNC[C@@H](F)C3)n2)c(F)c1F (stereo partly drawn) [Compound 271, 1-(2,2-Difluorocyclopropyl)-N-(2,3,6-trifluoro-4-((3-(2-(((3S,5S)-5-fluoropiperidin-3-yl)amino)pyrimidin-4-yl)pyridin-2-yl)oxy)phenyl)methanesulfonamide] | 3.6 nM | 
O=S(=O)(Nc1c(F)cc(Oc2ncccc2-c2ccnc(N[C@@H]3CNC[C@@H](F)C3)n2)c(F)c1F)C1CCCC1 [Compound 369, N-(2,3,6-Trifluoro-4-((3-(2-(((3S,5S)-5-fluoropiperidin-3-yl)amino)pyrimidin-4-yl)pyridin-2-yl)oxy)phenyl)cyclopentanesulfonamide] | 1.2 nM | 
Cc1c(NC(=O)CC2CCCCC2)ccc(Oc2ncccc2-c2ccnc(N[C@H]3CCCNC3)n2)c1C [Compound 129, (S)-2-Cyclohexyl-N-(2,3-dimethyl-4-((3-(2-(piperidin-3-ylamino)pyrimidin-4-yl)pyridin-2-yl)oxy)phenyl)acetamide] | 230 nM | 
N[C@H]1CC[C@H](Nc2nccc(-c3cccnc3Oc3ccc(NS(=O)(=O)Cc4ccccc4)c(F)c3F)n2)CC1 [Compound 169, N-(4-((3-(2-(((1r,4r)-4-Aminocyclohexyl)amino)pyrimidin-4-yl)pyridin-2-yl)oxy)-2,3-difluorophenyl)-1-phenylmethanesulfonamide] | 4.1 nM | 
O=S(=O)(Cc1cccc(Cl)c1)Nc1ccc(Oc2ncccc2-c2ccnc(N[C@H]3CCCNC3)n2)c(F)c1F [Compound 225, (S)-1-(3-chlorophenyl)-N-(2,3-difluoro-4-((3-(2-(piperidin-3-ylamino)pyrimidin-4-yl)pyridin-2-yl)oxy)phenyl)methanesulfonamide] | 6.1 nM | 
O=S(=O)(Cc1ccccc1)Nc1c(F)cc(Oc2ncccc2-c2ccnc(NC3CC4CCCN(C4)C3)n2)c(F)c1F (single isomer, unassigned) [Compound 288, N-(4-((3-(2-((1-azabicyclo[3.3.1]nonan-3-yl)amino)pyrimidin-4-yl)pyridin-2-yl)oxy)-2,3,6-trifluorophenyl)-1-phenylmethanesulfonamide] | 1.1 nM | 
OC(CNc1cccc(Oc2ncccc2-c2ccnc(N[C@H]3CCCNC3)n2)c1F)C(F)(F)F (single isomer, unassigned) [Compound 201] | 210 nM | 
O=S(=O)(Cc1ccc(F)cc1)Nc1ccc(Oc2ncccc2-c2ccnc(N[C@H]3CCCNC3)n2)c(F)c1F [Compound 235, (S)-N-(2,3-difluoro-4-(3-(2-(piperidin-3-ylamino)pyrimidin-4-yl)pyridin-2-yloxy)phenyl)-1-(4-fluorophenyl)methanesulfonamide] | 4 nM | 
O=S(=O)(Cc1ccccc1)Nc1ccc(Oc2ncccc2-c2ccnc(N[C@H]3CCCNC3)n2)c(F)c1F [Compound 108, (S)-N-(2,3-difluoro-4-((3-(2-(piperidin-3-ylamino)pyrimidin-4-yl)pyridin-2-yl)oxy)phenyl)-1-phenylmethanesulfonamide hydrochloride] | 3.4 nM | 

The next lines start with results.

IC50 [1] | SMILES | toxicity in cells (cells)
0.14 nM | CS(=O)(=O)c1ccc(CS(=O)(=O)Nc2c(F)cc(Oc3ncccc3-c3ccnc(N[C@@H]4CNC[C@@H](F)C4)n3)c(F)c2F)cc1 [Compound 312, 1-(4-(Methylsulfonyl)phenyl)-N-(2,3,6-trifluoro-4-((3-(2-(((3S,5S)-5-fluoropiperidin-3-yl)amino)pyrimidin-4-yl)pyridin-2-yl)oxy)phenyl)methanesulfonamide] | 
0.65 nM | N#Cc1ccc(CS(=O)(=O)Nc2c(F)cc(Oc3ncccc3-c3ccnc(N[C@@H]4CNC[C@H](CF)C4)n3)c(F)c2F)cc1 [Compound 321, 1-(4-Cyanophenyl)-N-(2,3,6-trifluoro-4-((3-(2-(((3S,5R)-5-(fluoromethyl)piperidin-3-yl)amino)pyrimidin-4-yl)pyridin-2-yl)oxy)phenyl)methanesulfonamide] | 
0.35 nM | O=S(=O)(Cc1ccc(F)cc1)Nc1c(F)cc(Oc2ncccc2-c2ccnc(N[C@@H]3CNCC(CF)C3)n2)c(F)c1F (stereo in doubt) [Compound 316, 1-(4-Fluorophenyl)-N-(2,3,6-trifluoro-4-((3-(2-(((3S,5S)-5-(fluoromethyl)piperidin-3-yl)amino)pyrimidin-4-yl)pyridin-2-yl)oxy)phenyl)methanesulfonamide] | 
0.17 nM | CC(F)C1CNCC(Nc2nccc(-c3cccnc3Oc3cc(F)c(NS(=O)(=O)Cc4ccccc4)c(F)c3F)n2)C1 (single isomer, unassigned) [Compound 345, 1-Phenyl-N-(2,3,6-trifluoro-4-((3-(2-((5-(1-fluoroethyl)piperidin-3-yl)amino)pyrimidin-4-yl)pyridin-2-yl)oxy)phenyl)methanesulfonamide hydrochloride] | 
0.3 nM | Cc1ccc(CS(=O)(=O)Nc2c(F)cc(Oc3ncccc3-c3ccnc(N[C@@H]4CNC[C@@H](F)C4)n3)c(F)c2F)c(F)c1 [Compound 384, 1-(2-Fluoro-4-methylphenyl)-N-(2,3,6-trifluoro-4-((3-(2-(((3S,5S)-5-fluoropiperidin-3-yl)amino)pyrimidin-4-yl)pyridin-2-yl)oxy)phenyl)methanesulfonamide] | 
0.32 nM | CN(C)[C@H]1CC[C@H](Nc2nccc(-c3cccnc3Oc3cc(F)c(NS(=O)(=O)CCC(C)(F)F)c(F)c3F)n2)CC1 [Compound 310, N-(4-((3-(2-(((1r,4r)-4-(Dimethylamino)cyclohexyl)amino)pyrimidin-4-yl)pyridin-2-yl)oxy)-2,3,6-trifluorophenyl)-3,3-difluorobutane-1-sulfonamide] | 
0.8 nM | O=S(=O)(CC12CCC(CC1)CC2)Nc1c(F)cc(Oc2ncccc2-c2ccnc(N[C@@H]3CNC[C@@H](F)C3)n2)c(F)c1F [Compound 377, 1-(Bicyclo[2.2.2]octan-1-yl)-N-(2,3,6-trifluoro-4-((3-(2-(((3S,5S)-5-fluoropiperidin-3-yl)amino)pyrimidin-4-yl)pyridin-2-yl)oxy)phenyl)methanesulfonamide] | 

— patent publication US12071425B2 (Genentech, Inc., priority 2018, dated 2024)
